# Experimental data: patent US20250043250A1, “COMPOSITIONS AND METHODS FOR EXPANDING KERATINOCYTES” (STEMCELL Technologies Canada Inc., priority 2021, published 2025)
# Experiments:
# [1] = test system: TP63; experiment: FACS analysis of TP63+ cells; format: cell-based, human; conditions: 1C iPS derived skin organoid cells, HKGS medium with or without supplement (FIG. 12)
# From the text: WLS-1C iPS cells were formed into hair-bearing skin organoids as described herein and dissociated prior to plating the cells in EpiLife HKGS, or in EpiLife HKGS supplemented with the indicated small molecules. The cells were stained for TP63 expression and analyzed by FACS.
# The ability of a commercially available medium to expand PSC-derived keratinocytes could be somewhat restored upon supplementation with one or more small molecule inhibitors, but not to the levels of DermaCult™ (FIG. 11). Specifically, HKGS medium was supplemented with A83-01, DAPT, Y-27632, or all three of A83-01, DAPT, and Y-27632. […] These findings were confirmed in a different experiment where 1C iPS cells were cultured in the foregoing media conditions and analyzed for p63 expression, to distinguish keratinocytes from other cell types included in the PSC-derived skin organoids, such as fibroblasts (FIG. 12).
# [2] = test system: PSC-derived keratinocytes; experiment: Adherent monolayer culture of dissociated PSC-derived hair-bearing skin organoid cells: colony emergence and morphology; format: cell-based, human; conditions: H9 ES and 1C iPS derived cells, HKGS medium supplemented with the small molecule(s) (FIG. 11)
# Protocol: The aggregates of Example 1 were plated under non-adherent conditions in an AggreWell™ or a 96-well plate, and cultured for 12 days in a skin organoid induction medium, such as STEMdiff™ Skin Organoid Induction Medium (STEMCELL Technologies). Following, the skin organoids are transferred into STEMdiff™ Skin Organoids Maturation Medium (STEMCELL Technologies) for at least 8 weeks, adding or changing the medium every 3-4 days. After the skin organoids have matured, preferably presenting as hair-bearing skin organoids (e.g. hair placode present skin organoids), they are dissociated overnight in a 37 degree incubator in a Dispase solution. […]
# Various commercially available cell culture media are marketed for the purpose of culturing human epidermal keratinocytes: EpiLife™ Defined Growth Supplement for use with EpiLife™ medium; Gibco™ Human Keratinocyte Growth Supplement for use with EpiLife medium or Medium 154; and Cnt-57 Epithelial Proliferation Medium. […] Population doublings were also assessed over several weeks for keratinocytes grown from various PSC lines in a culture medium of this disclosure in comparison to EpiLife EDGS and EpiLife HKGS. […]
structure (smiles),measurement,setting,value
C[C@@H](N)[C@H]1CC[C@H](C(=O)Nc2ccncc2)CC1 [Y-27632],emergence of p63+ cells,[1],emergence of comparable numbers of p63+ cells
same,emergence of colonies in supplemented HKGS medium,[2],emergence of colonies
